From patent publication US4312861A, “Pharmaceutical compositions containing N-alkyl-N-(nuclearly-substituted) benzylamines having vasotonia-regulating activity” (Hoechst Aktiengesellschaft, priority 1974, dated 1982)
Where a name gives a salt, the structure may show the parent alone.

Legend:
[1] = tested on: carrageenin oedema in the rat paw; assay: Suppression of carrageenin oedema in the rat paw (Siegmund); type: in vivo; conditions: 3 h p.a.
Experimental: (7) Suppression of carrageenin oedema in the rat paw
The inflammation-reducing and anti-oedematous effects on carrageenin and serotonin oedemas in the rat paw were studied according to Siegmund et al (Proc. Soc. exp. Biol. Med. 95 (1957), page 729). The values are given as percentages, based on the values obtained in control tests using a dummy procedure. In this way, the antiphlogistic activity of the substances according to the invention was tested.

[2] = tested on: isolated guinea-pig heart; assay: Relative coronary blood-flow change in isolated guinea-pig heart (Langendorff)
Experimental: (4) Relative coronary blood-flow change in an isolated guinea-pig heart.
The tests were carried out according to the method of Langendorff (Pflugers Archiv. 61 (1895), page 219).
In Table 5, the change in coronary blood flow after administration of various quantities of the test substance is compared with that after administration of the known compounds heptaminol and Aescin sodium salt.

mouse [3] = assay: Toxicity in the mouse (Litchfield and Wilcoxon); type: in vivo
Experimental: (§1) (6) Toxicity in the mouse
(§2) Toxicity was determined according to Litchfield and Wilcoxon (J. Pharmacol. exp. Ther. 97 (1949), page 399) in the mouse. In comparison, the values with the known substance aescin sodium salt were determined. Comparative tests with 0.1% solution, of venous and optical compatibility on the rabbit yielded similar results.

[4] = tested on: permeability of the capillaries; assay: Histamine rash test (modified Halpern), capillary permeability; type: in vivo; conditions: 30 minutes before histamine
Experimental: The test according to Halpern (Presse medicale 65 (1949), page 949) was used in modified form. The suppressive effect of the compounds according to the invention on the permeability of the capillaries was tested. The blue coloration induced by intravenous administration of trypan blue at two intracutaneous histamine injection points per animal, (trypan blue administered 2 minutes before the histamine), was estimated according to the following scale of values:
indications of blue coloration
clear blue coloration =4
stong blue coloration =6
The preceding evaluation was made from the combined effect at the two injection points.
The test substances were administered i.p. 30 minutes before the histamine injection.

perfused rabbit ear = assay: Blood-flow change in perfused isolated rabbit ear, vaso-dilator activity (Ringer-Norfenefrin solution)
Experimental: (3) Blood-flow change in an isolated rabbit ear
The tests were carried out according to Krakow-Pissemski (Pflugers Archiv 151 (1913), page 583 and 156 (1914), page 426). In Table 5a the estimated values of the vaso-constrictor activity in Ringer solutions of varying concentrations are given and in Table 5b values for vasodilatory activity in Ringer-Norfenefrin solutions of varying concentrations are given. As a comparison, the values obtained with the known preparation aescin sodium are given.

isolated portal vein = assay: Isolated rat's portal vein (Berti), increase in tonus
Experimental: (2) Isolated rat's portal vein
The tests on the rat's portal vein, an organ with its own rhythm, were performed according to the method of Berti et al (Arch. int. Pharmacodyn. 184 (1970), page 328). In Table 4, the increase in tonus at various adrenalin concentrations is given in milligrams. As a comparison, the values for the known substance heptaminol (=6-amino-2-methylheptane-2-ol) are also given.

isolated aorta sections = assay: Isolated aorta section (modified Furchgott), contraction in noradrenalin; set-up: species or system rabbit; conditions: in words
Experimental: (§3) (1) Isolated vein and aorta sections
(§4) The tests were carried out on isolated vein and aorta sections from rabbits in accordance with the modified method of Furchgott et al (J. Pharmacol, exp. Ther. 108 (1953), page 129). The contraction of the vein section in adrenalin and of the aorta section in noradrenalin, after administration of 10^-6 g/ml of the test compound was defined to have the base value of 100.

[5] = Toxicity in the mouse (Litchfield and Wilcoxon); type: in vivo; conditions: mouse, in vivo
Experimental: as §1, §2

isolated vein sections = assay: Isolated vein section (modified Furchgott), contraction in adrenalin; set-up: species or system rabbit; conditions: in words
Experimental: as §3, §4

[6] = tested on: writhing movements in the mouse; assay: Writhing test (Winter); type: in vivo
Description: The analgesic activity of the compounds according to the invention were studied by the method of Winter et al (Proc. Soc. exp. Biol. Med, 111 (1962), page 544), in which the suppression of writhing movements in the mouse was observed.

mouse [7] = assay: Hot-plate test (Chen and Beckman); type: in vivo
Experimental: This test was performed on the mouse, according to Chen and Beckman (see Science 113 (1951), page 631). 50 mg/kg of the compound No. 2 (cf. formula sheet) which has been administered per os increase the reaction time of the animals by 70%.

[8] = 100 μg (first figure where two are given)

Row | Compound | Suppression of carrageenin oedema in the paw (antiphlogistic activity) ([1]; 100 mg/kg p.o.) [%] | Relative change in coronary blood flow [2, 8] | Histamine rash test, blue coloration score (0 = none, 2 = indications, 4 = clear, 6 = strong) ([4]; 1.0 mg/kg i.p.) | Histamine rash test, blue coloration score (0 = none, 2 = indications, 4 = clear, 6 = strong) ([4]; 3.0 mg/kg i.p.) | Relative change in blood flow, vaso-dilator activity (perfused rabbit ear; 3 × 10^-5 g/ml) | Relative change in blood flow, vaso-dilator activity (perfused rabbit ear; 10^-5 g/ml) | Relative change in blood flow, vaso-dilator activity (perfused rabbit ear; 10^-6 g/ml) | Relative change in blood flow, vaso-dilator activity (perfused rabbit ear; 10^-7 g/ml) | Increase in tonus, isolated rat's portal vein (isolated portal vein; 10^-4 g/ml) | Increase in tonus, isolated rat's portal vein (isolated portal vein; 10^-5 g/ml) | LD50 ([5]; ip) [mg/kg] | LD50 ([5]; po) [mg/kg] | Suppression of writhing movements ([6]; 50 mg/kg p.o.) [%] | further results
1 | CCCCCC(C)NCc1c(C)cc(C)cc1C (single isomer, unassigned) [compound 4] | 14 | +125 | 3.1 | 1.7 | +31 | +104 | +40 | +4 | – | – | – | – | – | Toxicity in the mouse (mouse [3]; i.p.): 50 to 100 mg/kg; Toxicity in the mouse (mouse [3]; i.v.): 12,4 mg/kg
2 | CCC(C)C(C)NCc1c(C)cc(C)cc1C (stereo not shown) [Serial No. 27] | – | – | 3.6 | 1.9 | +12 | – | +4 | – | +250 milligrams | +19 milligrams | 100 to 250 | 2400 | – | Increase in tonus, isolated rat's portal vein (isolated portal vein; 10^-6 g/ml): -9 milligrams; Vasotonic activity compared with aescin sodium (aorta, Table 3) (isolated aorta sections): stronger vasotonic activity than the comparison substance aescin sodium
3 | CCCCCCC(C)NCc1c(C)cc(C)cc1C (stereo not shown) [Serial No. 26] | 39 | – | 1.8 | 1.2 | – | +58 | +29 | +7 | – | – | 50 to 100 | – | 45 | Vasotonic activity compared with aescin sodium (vein, Table 2) (isolated vein sections): stronger vasotonic activity than the comparison substance aescin sodium; Relative change in coronary blood flow ([2]; 10 μg (first figure where two are given)): +28; Relative change in coronary blood flow ([2]; 30 μg (first figure where two are given)): +57
4 | CCCCCC(C)NCc1c(C)cc(C)cc1C (stereo not shown) [Serial No. 2, 2-(2,4,6-Trimethylbenzyl)-aminoheptane hydrochloride] | 46 | +120 | 2.6 | 1.7 | – | +73 | +31 | +3 | +185 milligrams | +106 milligrams | 114 | 940 | 53 | Suppression of carrageenin oedema in the paw (antiphlogistic activity) ([1]; 25 mg/kg p.o.): 53%; Suppression of carrageenin oedema in the paw (antiphlogistic activity) ([1]; 63 mg/kg p.o.): 52%; Suppression of writhing movements ([6]; 40 mg/kg p.o.): 32%; Suppression of writhing movements ([6]; 63 mg/kg p.o.): 51%; Suppression of writhing movements ([6]; 100 mg/kg p.o.): 80%; Increase in reaction time of the animals (mouse [7]; 50 mg/kg per os): 70%; LD50 ([5]; iv): 11.7 mg/kg; Histamine rash test, blue coloration score (0 = none, 2 = indications, 4 = clear, 6 = strong) ([4]; 0.1 mg/kg i.p.): 3.5; Histamine rash test, blue coloration score (0 = none, 2 = indications, 4 = clear, 6 = strong) ([4]; 0.3 mg/kg i.p.): 3.4; Histamine rash test, blue coloration score (0 = none, 2 = indications, 4 = clear, 6 = strong) ([4]; 10.0 mg/kg i.p.): 1.9; Relative change in blood flow, vaso-dilator activity (perfused rabbit ear; 10^-4 g/ml): +112
5 | Cc1c(N(C)C)c(=O)n(-c2ccccc2)n1C [aminophenazone, reference compound] | – | – | – | – | – | – | – | – | – | – | – | – | – | ED50 (mouse [7]; Mus musculus, comparison substance, read-out: Effective dose of 50% (ED 50), hot-plate test): 84 mg/kg
